Biological target: T1, Human coagulation factor (F)XI (Homo sapiens, UniProt P03951)
T1 construct: purchased Haematologic Technologies Inc. (FXI); Enzyme Research Laboratories (FXIIa) HCXI-150 (FXI); HFXIIa (FXIIa)
Assay: Inhibition of FXIIa mediated activation of FXI (activation of human Factor XI to XIa by human Factor α-XIIa)
Assay type: biochemical
Settings: human FXI pre-incubated with compound 30 min at 22° C., activation by human FXIIa 60 min, z-GPR-AFC substrate fluorescence, 4 parameter logistic fit; read-out: Inhibition of FXIIa meditated activation of FXI
Protocol: Inhibition of FXIIa Mediated Activation of FXI
Activation of Human Factor XI to XIa by Human Factor α-XIIa
The assay was performed in 50 mM HEPES, 150 mM NaCl, 5 mM CaCl2, 0.1% PEG-8000, pH 7.4 buffer in black, flat-bottom, polystyrene microplates (Corning, Cat #3573). Serial dilutions (10-point, 3.333-fold) of the test compounds delivered as 10 mM DMSO stocks were prepared in the Labcyte Echo-qualified PP 384 well microplates (Labcyte, Cat #P-05525). Human coagulation factor (F)XI (Haematologic Technologies Inc., Cat #HCXI-150, concentration 46 nM, 19.5 uL) was pre-incubated with 0.5 uL of the test compounds for 30 min at 22° C. The activation was initiated by addition of 10 uL of human coagulation factor (F)XIIa (Enzyme Research Laboratories, Cat #HFXIIa, concentration 30 nM) and the reaction proceeded for 60 min at 22° C., after which it was quenched by addition of a selective inhibitor of FXIIa (Compound 54 in International Patent Publication WO2018093695) concentration 600 uM in DMSO, 1 uL). 10 min after the quench, 29 uL of z-GPR-AFC substrate (Sigma, Cat #C0980-10 MG, concentration 200 uM) was added into each well and the detection reaction proceeded for 60 min at 22° C. Fluorescence at 405/510 nm was measured in end-point mode using an Envision plate-reader (Perkin Elmer). IDBS Activity Base XE (ABase) analysis using 4 parameter logistic fit was performed to determine Minimum, Maximum, EC50, and Slope Factor for each compound.

T1 sequence (P03951 19-625): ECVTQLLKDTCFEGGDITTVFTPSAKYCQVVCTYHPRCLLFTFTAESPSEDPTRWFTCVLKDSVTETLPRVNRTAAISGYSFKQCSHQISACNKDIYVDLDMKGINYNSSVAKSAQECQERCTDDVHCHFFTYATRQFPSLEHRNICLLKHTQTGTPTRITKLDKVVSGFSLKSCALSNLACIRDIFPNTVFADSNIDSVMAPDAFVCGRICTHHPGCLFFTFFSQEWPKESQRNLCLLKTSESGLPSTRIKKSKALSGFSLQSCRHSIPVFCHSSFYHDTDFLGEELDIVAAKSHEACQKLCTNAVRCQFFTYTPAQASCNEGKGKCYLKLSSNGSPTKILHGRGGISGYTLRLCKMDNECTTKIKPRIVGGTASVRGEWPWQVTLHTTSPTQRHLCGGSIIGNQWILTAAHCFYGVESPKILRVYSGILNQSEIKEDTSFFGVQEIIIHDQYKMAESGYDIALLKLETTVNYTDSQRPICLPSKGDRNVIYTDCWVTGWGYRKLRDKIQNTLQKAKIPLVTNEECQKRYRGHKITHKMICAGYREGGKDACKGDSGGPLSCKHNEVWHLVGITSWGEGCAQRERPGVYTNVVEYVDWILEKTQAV

EC50 [nM] | Compound
19.1 | O=C(c1cc(C(=O)N2CCCCC2)c2cc(OCc3nc4ccccc4s3)ccc2n1)N1CCC2(CC1)CC2(F)F [Example 62, (6-(benzo[d]thiazol-2-yl-methoxy)-2-(1,1-difluoro-6-azaspiro[2.5]octane-6-carbonyl)quinolin-4-yl)-(piperidin-1-yl)methanone]
40.5 | N#CC1(c2ccccc2)CCN(C(=O)c2cc(C(=O)N3CCCCC3)c3cc(OCc4noc5ccccc45)ccc3n2)CC1 [Example 51, 1-(6-(benzo[d]isoxazol-3-yl-methoxy)-4-(piperidine-1-carbonyl)quinoline-2-carbon-yl)-4-phenylpiperidine-4-carbonitrile]
35.1 | O=C(c1cc(C(=O)N2CCCCC2)c2cc(OCc3cn4c(F)cccc4n3)ccc2n1)N1CCC(n2cccn2)CC1 [Example 11, (4-(1H-pyrazol-1-yl)piperidin-1-yl)(6-((5-fluoroimidazo[1,2-a]pyridin-2-yl)methoxy)-4-(piperidine-1-carbonyl)-quinolin-2-yl)methanone]
21.9 | Cc1c(COc2ccc3nc(C(=O)N4CCC(n5cccn5)CC4)cc(C(=O)N4CCCCC4)c3c2)ccc2c1COC2=O [Example 18, 5-(((2-(4-(1H-pyrazol-1-yl)-piperidine-1-carbonyl)-4-(piperidine-1-carbonyl)-quinolin-6-yl)oxy)methyl)-4-methylisobenzofuran-1(3H)-one]
34.7 | O=C(c1cc(C(=O)N2CCCCC2)c2cc(OCc3nc4ccccc4s3)ccc2n1)N1CCN(CC(F)F)CC1 [Example 67, (6-(benzo[d]thiazol-2-yl-methoxy)-2-(4-(2,2-difluoroethyl)piperazine-1-carbonyl)quinolin-4-yl)-(piperidin-1-yl)methanone]
36.9 | N#Cc1cc(F)ccc1COc1ccc2nc(C(=O)N3CCC(C#N)(c4ccccc4)CC3)cc(C(=O)N3CCCCC3)c2c1 [Example 45, 1-(6-((2-cyano-4-fluoro-benzyl)oxy)-4-(piperidine-1-carbonyl)quinoline-2-carbon-yl)-4-phenylpiperidine-4-carbonitrile]
45.9 | O=C(c1cc(C(=O)N2CCCCC2)c2cc(OCc3nc4ccccc4s3)ccc2n1)N1CCC(n2cc(F)cn2)CC1 [Example 69, (6-(benzo[d]thiazol-2-yl-methoxy)-2-(4-(4-fluoro-1H-pyrazol-1-yl)piperi-dine-1-carbonyl)quinolin-4-yl)(piperidin-1-yl) methanone]
42.1 | O=C(c1cc(C(=O)N2CCCCC2)c2cc(OCc3nc4ccccc4s3)ccc2n1)N1CCC(n2ccnn2)CC1 [Example 64, (4-(1H-1,2,3-triazol-1-yl)-piperidin-1-yl)(6-(benzo-[d]thiazol-2-ylmethoxy)-4-(piperidine-1-carbonyl)-quinolin-2-yl)methanone]
39 | N#Cc1cc(Cl)ccc1COc1ccc2nc(C(=O)N3CCC(C#N)(c4ccccc4)CC3)cc(C(=O)N3CCCCC3)c2c1 [Example 27, 1-(6-((4-chloro-2-cyanobenzyl)oxy)-4-(piperidine-1l-carbonyl)quinoline-2-carbonyl)-4-phenylpiperidine-4-carbonitrile]
40.2 | O=C(c1cc(C(=O)N2CCCCC2)c2cc(OCc3nc4ccccc4s3)ccc2n1)N1CC[C@H]2OCCC[C@@H]2C1 [Example 70]
44.6 | O=C(c1cc(C(=O)N2CCCCC2)c2cc(OCc3cc4ccccn4n3)ccc2n1)N1CCC(n2cccn2)CC1 [Example 22, (4-(1H-pyrazol-1-yl)piperidin-1-yl)(4-(piperidine-1-carbon-yl)-6-(pyrazolo[1,5-a]pyridin-2-ylmethoxy)quinolin-2-yl) methanone]
60 | NC(=O)C1(c2ccccc2)CCN(C(=O)c2cc(C(=O)N3CCCCC3)c3cc(OCc4nc5ccccc5s4)ccc3n2)CC1 [Example 59, 1-(6-(benzo[d]thiazol-2-yl-methoxy)-4-(piperidine-1-carbonyl)quinoline-2-car-bonyl)-4-phenylpiperidine-4-carboxamide]
48.7 | COc1ccc(COc2ccc3nc(C(=O)N4CCC(C#N)(c5ccccc5)CC4)cc(C(=O)N4CCCCC4)c3c2)c(C(F)(F)F)c1 [Example 42, 1-(6-((4-methoxy-2-(tri-fluoromethyl)benzyl)oxy)-4-(piperidine-1-carbonyl)quin-oline-2-carbonyl)-4-phenyl-piperidine-4-carbonitrile]
62.6 | O=C(c1cc(C(=O)N2CCCC(F)(F)C2)c2cc(OCc3nc4ccccc4s3)ccc2n1)N1CCC(n2cccn2)CC1 [Example 53, (4-(1H-pyrazol-1-yl)piperidin-1-yl)(6-(benzo[d]thiazol-2-ylmethoxy)-4-(3,3-difluoro-piperidine-1-carbonyl)quin-olin-2-yl)methanone]
31.8 | COc1ccc(COc2ccc3nc(C(=O)N4CCC(C#N)(c5ccccc5)CC4)cc(C(=O)N4CCCCC4)c3c2)cc1F [Example 39, 1-(6-((3-fluoro-4-methoxy-benzyl)oxy)-4-(piperidine-1-carbonyl)quinoline-2-carbon-yl)-4-phenylpiperidine-4-carbonitrile]
29.1 | N#CC1(c2ccccc2)CCN(C(=O)c2cc(C(=O)N3CCCCC3)c3cc(OCc4ccc(OC(F)F)cc4)ccc3n2)CC1 [Example 36, 1-(6-((4-(difluoro-l3-meth-oxy)phenyl)methoxy)-4-(piperidine-1-carbonyl)quin-oline-2-carbonyl)-4-phenyl-piperidine-4-carbonitrile]
34.3 | O=C(c1cc(C(=O)N2CCCCC2)c2cc(OCc3ccc(Cl)cc3)ccc2n1)N1CCC(n2cccn2)CC1 [Example 21, (4-(1H-pyrazol-1-yl)piperidin-1-yl)(6-((4-chlorobenzyl)oxy)-4-(piperidine-1-carbonyl)quin-olin-2-yl)methanone]
10.2 | N#CC1(n2cccn2)CCN(C(=O)c2cc(C(=O)N3CCCCC3)c3cc(OCc4ccc5snnc5c4)ccc3n2)CC1 [Example 76, 1-(6-(benzo[d][1,2,3]thiadiazol-5-ylmethoxy)-4-(piperidine-1-carbonyl)quinoline-2-carbonyl)-4-(1H-pyrazol-1-yl)piperidine-4-carbonitrile]
49.9 | COc1ccc(COc2ccc3nc(C(=O)N4CCC(C#N)(c5ccccc5)CC4)cc(C(=O)N4CCCCC4)c3c2)c(Cl)c1 [Example 40, 1-(6-((2-chloro-4-methoxy-benzyl)oxy)-4-(piperidine-1-carbonyl)quinoline-2-carbon-yl)-4-phenylpiperidine-4-carbonitrile]
31.6 | O=C1OCc2cc(COc3ccc4nc(C(=O)N5CCC(n6cccn6)CC5)cc(C(=O)N5CCCCC5)c4c3)ccc21 [Example 19, 5-(((2-(4-(1H-pyrazol-1-yl)-piperidine-1-carbonyl)-4-(piperidine-1-carbonyl)-quinolin-6-yl)oxy)methyl)-isobenzofuran-1(3H)-one]
37.7 | N#CC1(c2ccccc2)CCN(C(=O)c2cc(C(=O)N3CCCCC3)c3cc(OCc4ccc(OC(F)(F)F)cc4)ccc3n2)CC1 [Example 35, 4-phenyl-1-(4-(piperidine-1-carbonyl)-6-((4-(trifluoro-methoxy)benzyl)oxy)quin-oline-2-carbonyl)piperidine-4-carbonitrile]
16.5 | CC(N1CCN(C(=O)c2cc(C(=O)N3CCCCC3)c3cc(OCc4nc5ccccc5s4)ccc3n2)CC1)C(F)(F)F (centres unmarked) [Example 66, (6-(benzo[d]thiazol-2-yl-methoxy)-2-(4-(1,1,1-trifluoropropan-2-yl)-piperazine-1-carbonyl)-quinolin-4-yl)(piperidin-1-yl)methanone]
21.8 | N#CC1(c2ccccn2)CCN(C(=O)c2cc(C(=O)N3CCCCC3)c3cc(OCc4nc5ccccc5s4)ccc3n2)CC1 [Example 57, 1-(6-(benzo[d]thiazol-2-yl-methoxy)-4-(piperidine-1-carbonyl)quinoline-2-car-bonyl)-4-(pyridin-2-yl)-piperidine-4-carbonitrile]
46.9 | N#Cc1cccc(COc2ccc3nc(C(=O)N4CCC(C#N)(c5ccccc5)CC4)cc(C(=O)N4CCCCC4)c3c2)c1 [Example 32, 1-(6-((3-cyanobenzyl)oxy)-4-(piperidine-1-carbonyl)quin-oline-2-carbonyl)-4-phenyl-piperidine-4-carbonitrile]
32.9 | N#Cc1ccc(COc2ccc3nc(C(=O)N4CCC(n5cccn5)CC4)cc(C(=O)N4CCCCC4)c3c2)c(F)c1 [Example 16, 4-(((2-(4-(1H-pyrazol-1-yl)-piperidine-1-carbonyl)-4-(piperidine-1-carbonyl)-quinolin-6-yl)oxy)methyl)-3-fluorobenzonitrile]
38.5 | N#CC1(c2ccccc2)CCN(C(=O)c2cc(C(=O)N3CCCCC3)c3cc(OCc4ccc(F)cc4F)ccc3n2)CC1 [Example 43, 1-(6-((2,4-difluorobenzyl)-oxy)-4-(piperidine-1-carbon-yl)quinoline-2-carbonyl)-4-phenylpiperidine-4-carbonitrile]

Reference: patent US12304899B2, “Factor XI activation inhibitors” (Merck Sharp & Dohme LLC, priority 2019, dated 2025)
